Reference: US20130224239A1, “ALCOHOLIC EXTRACT OF FUNGI OF GENUS […] AND USE THEREOF” (KING SAUD UNIVERSITY, priority 2011, published 2013)
In brackets after ≈: the same amount, converted by molar mass.

What was measured:
Format in all cases: cell-based
[1] = tested on: Pseudomonas aeruginosa (RCMB 0102); experiment: Antimicrobial screening, disc diffusion; settings: Pseudomonas aeurginosa; compounds isolated from Cunninghamella elegans
[2] = tested on: Staphylococcus aureus (RCMB 0106); experiment: Antimicrobial screening, disc diffusion; settings: compounds isolated from Cunninghamella elegans
[3] = tested on: Staphylococcus aureus; experiment: Minimum inhibitory concentration, agar well diffusion; settings: against Staphylococcus aureus
From the text: For antimicrobial screening the well known disc diffusion and agar well diffusion methods were used, together with the determination of minimum inhibitory concentration (MIC), see Duguid et al., Microbial Infections, The English Language Book Society, Churchill Livingston, Edingburgh, London, 1978; vol. 1, page 110.
Agar well diffusion method: On the other hand, the agar well diffusion method was employed for determination of the minimum inhibitory concentration (MIC). The test organisms were separately seeded in the agar medium. The wells (10 mm in diameter) were cut from the agar and […] (different concentrations) was transferred into them. After incubation period, following suitable conditions for the test organism, the diameter of the inhibition zone around the discs was measured in millimeters. The obtained result was the mean of three experiments.
The minimum inhibitory concentration (MIC) of Cunninghamella blakesleeana, C. elegans, C. homothallica and successive extracts and isolated compounds of Cunninghamella elegans against Staphylococcus aureus was determined.
Minimum inhibitory concentration (MIC): The lowest concentration of an antimicrobial agent that will inhibit a visible growth of a microorganism after overnight incubation.

Structure (SMILES): Nc1ncnc2c1ncn2C1OC(CO)C(O)C1O (centres unmarked) [Compound 4, 2-(6-amino-9H-purine-9-yl)-5-(hydroxymethyl)oxolane-3,4-diol]
- Diameter of inhibition zone [1]: 00.0 mm
- Diameter of inhibition zone [2]: 30.0 ± 0.1 mm
- Diameter of inhibition zone ([2]; listed as compound 4): 30.0±0.01 mm
- Minimum inhibitory concentration [3]: 020 µg/mL (≈ 74.8 µM)
- MIC ([3]; read-out: Minimum inhibitory concentration): 20 µg/mL (≈ 74.8 µM)
